The results in this text go back to US20150166617A1, “COMPOSITIONS AND METHODS OF TREATING ALZHEIMER'S DISEASE” (UNIVERSITY OF MIAMI, priority 2012, published 2015).

One series deals with HCN-2 cells. The experiment in a line: Cell viability assay, HCN-2 cells treated with amyloid-β1-42 (MTT), Example 5. It counts as cell-based. The note with it: 10 μM amyloid-β1-42; peptide 10 nM, 100 nM, 1 μM; four days of exposure; FIG. 7. The protocol: Differentiated HCN-2A neuronal cells were treated with 10 μM amyloid-β1-42 alone and in combination with 10 nM, 100 nM and 1 μM of MIA-602, MIA-606 and MIA 640. After the treatment, the cell viability was determinate as indicated by the supplier using the Promega Cell Titer 96® Aqueous Non-Radioactive Cell Proliferation Assay. The absorbance level was determined at 490 nm. Data are percentage of control (n=3).
HCN-2 cells (American Type Culture Collection, Manassas, Va., USA) were cultured in DMEM medium (supplemented with 10% Fetal Bovine Serum (FBS) and 0.1% penicillin/streptomycin) at 37° C. and in an atmosphere of air and 5% CO2. Cell were directly plated into 96-well micro plates at 5,000 cells/cm^2. After 7 days, to allow cell number duplication (up to 70-80% confluence), the differentiation of HCN-2 cells was induced by adding fresh medium containing 25 ng/ml NGF, 0.5 mM dibutyryl cAMP and 0.5 mM isobutylmethylxanthine (IBMX) (all from Sigma-Aldrich, St. Louis, Mo.) for a week. Then, human amyloid-β1-42 (Sunnyvale, Calif.) stock solution (10 mM) was prepared in TRIS and then immediately diluted to appropriate concentrations in the assay medium. The medium used for neurotoxicity assay was N2-supplemented DMEMF12 (Gibco BRL, NY) with 2% FBS. The treatment groups were control, amyloid-β1-42, and the combination treatments with amyloid-β1-42 and 3 doses (10 nM, 100 nM and 1 μM) of the analogs (MIA-602, MIA-606 and MIA-640). The effect of the analogs on cell viability was evaluated after four days of exposure by using the 3-(4,5-Dimethylthiazol-2-yl)-2,5-diphenyltetrazolium bromide (MTT) assay (Cell Titer 96® Non-Radioactive Cell Proliferation Assay, Promega, Madison, Wis.), according to the manufacturer's instructions.

Series [1] relates to Alzheimer's disease related genes. The experiment in a line: Mouse Alzheimer's Disease real-time quantitative PCR array on brain samples of 5XFAD mice. It counts as in vivo. The note with it: brain of 5XFAD mice, 10 μg daily for six months. The protocol:
Total RNA was isolated and DNAse treated from representative hemispheria using NucleoSpin kit according to the manufacturer's instructions (Macherey-Nagel Inc., Bethlehem, Pa.). Five samples each from the control and the 10 μg MIA-690 group were analyzed. The yield and the quality of RNA samples were determined spectrophotometrically using 260 nm, and 260/280 and 260/230 nm ratio. The synthesis of cDNA was performed as follows. Briefly, 1 μg of RNA from each sample was reverse-transcribed into cDNA by RT First Strand kit (Qiagen). Reverse transcription was done in a Veriti 96-well thermal cycler (Applied Biosystems). The Mouse Alzheimer's Disease real-time quantitative PCR array (PAMM-057Z Qiagen) used in the study contains 84 unique genes related to Alzheimer's disease. All PCR arrays were performed using iQ5 Multicolor Real-Time Detections System (Bio-Rad). […] Data analysis of gene expression was performed using Excel based PCR Array Data Analysis Software provided by the manufacturer (Qiagen): fold-changes in gene expression were calculated using the ΔΔCt method and five stably expressed housekeeping genes (Act b, B2m, GAPDH, Gus b, Hsp 90 ab1) were used for normalization of the results.

Square brackets hold non-standard residues; d marks the D form. Peptide text beside a SMILES is read from it. * marks the point of attachment. Phe(F5) = N[C@@H](Cc1c(F)c(F)c(F)c(F)c1F)C(=O)O; Phe(4-Cl) = N[C@@H](Cc1ccc(Cl)cc1)C(=O)O; hArg = N=C(N)NCCCC[C@H](N)C(=O)O; 12Ado = NCCCCCCCCCCCC(=O)O; Nle = CCCC[C@H](N)C(=O)O; Orn = NCCC[C@H](N)C(=O)O; Abu = CC[C@H](N)C(=O)O; PhAc = O=C(Cc1ccccc1)*

With “Phac-Ada-Tyr^1-D-Arg^2-Asp^3-Ala^4-Ile^5-Phe(F)5^6-Thr^7-Me-Ala^8-Har^9-Tyr(Me)^10-His^11-Orn^12-Val^13-Leu^14-Abu^15-Gln^16-Leu^17-Ser^18-Ala^19-His^20-Orn^21-Leu^22-Leu^23-Gln^24-Asp^25-Ile^26-Nle^27-D-Arg^28-Har^29-Agm-NH2 [MIA-606]”, the “viability of neurons (HCN-2) under amyloid-β1-42 co-treatment” value (from here on “viability of neurons”) in the series with HCN-2 cells was “attenuated the toxic impact of co-treatment with amyloid-β1-42 on the viability of neurons”.
As for “Phac-Ada-Tyr^1-D-Arg^2-Asp^3-Ala^4-Ile^5-Cpa^6-Thr^7-Ala^8-Har^9-Fpa5^10-His^11-Orn^12-Val^13-Leu^14-Abu^15-Gln^16-Glu^17-Ser^18-Ala^19-His^20-Orn^21-Leu^22-Leu^23-Gln^24-Asp^25-Ile^26-Nle^27-D-Arg^28-Har^29-Ada-NH2 [MIA-640]”, the “viability of neurons” value in the series on HCN-2 cells is recorded as “attenuated the toxic impact of co-treatment with amyloid-β1-42 on the viability of neurons”.
As for “Phac-Ada-Tyr^1-D-Arg^2-Asp^3-Ala^4-Ile^5-Phe(F)5^6-Thr^7-Ala^8-Har^9-Tyr(Me)^10-His^11-Orn^12-Val^13-Leu^14-Abu^15-Gln^16-Leu^17-Ser^18-Ala^19-His^20-Orn^21-Leu^22-Leu^23-Gln^24-Asp^25-Ile^26-Nle^27-D-Arg^28-Har^29-NH2 [MIA-602]”, the “viability of neurons” value in the series on HCN-2 cells is given as “attenuated the toxic impact of co-treatment with amyloid-β1-42 on the viability of neurons”.
Take `CCCC[C@H](NC(=O)[C@@H](NC(=O)[C@H](CC(=O)O)NC(=O)[C@H](CCC(N)=O)NC(=O)[C@H](CC(C)C)NC(=O)[C@H](CC(C)C)NC(=O)[C@H](CCCN)NC(=O)[C@H](Cc1c[nH]cn1)NC(=O)[C@H](C)NC(=O)[C@H](CO)NC(=O)[C@H](CC(C)C)NC(=O)[C@H](CCC(N)=O)NC(=O)[C@H](CC)NC(=O)[C@H](CC(C)C)NC(=O)[C@@H](NC(=O)[C@H](CCCN)NC(=O)[C@H](Cc1c[nH]cn1)NC(=O)[C@H](Cc1c(F)c(F)c(F)c(F)c1F)NC(=O)[C@H](CCCCNC(=N)N)NC(=O)[C@H](C)NC(=O)[C@@H](NC(=O)[C@H](Cc1ccc(Cl)cc1)NC(=O)[C@@H](NC(=O)[C@H](C)NC(=O)[C@H](CC(=O)O)NC(=O)[C@@H](CCCNC(=N)N)NC(=O)[C@H](Cc1ccc(O)cc1)NC(=O)CCCCCCCCCCCNC(=O)Cc1ccccc1)[C@@H](C)CC)[C@@H](C)O)C(C)C)[C@@H](C)CC)C(=O)N[C@H](CCCNC(=N)N)C(=O)N[C@@H](CCCCNC(=N)N)C(N)=O` [MIA-690, Phac-Ada-Tyr^1-D-Arg^2-Asp^3-Ala^4-Ile^5-Cpa^6-Thr^7-Ala^8-Har^9-Fpa5^10-His^11-Orn^12-Val^13-Leu^14-Abu^15-Gln^16-Leu^17-Ser^18-Ala^19-His^20-Orn^21-Leu^22-Leu^23-Gln^24-Asp^25-Ile^26-Nle^27-D-Arg^28-Har^29-NH2] ({PhAc-12Ado}-Y[dR]DAI[Phe(4-Cl)]TA[hArg][Phe(F5)]H[Orn]VL[Abu]QLSAH[Orn]LLQDI[Nle][dR][hArg]-NH2): in series [1], the “Fold change vs. controls: amyloid-β (A4) precursor protein binding family A, member 2” value is given as −2.94 fold and the “Fold change vs. controls: amyloid-β (A4) precursor protein binding family B, member 3” value is listed as −2.04 fold.
